# Assay results reported in a melting point compilation (Tetko et al.; mined from patent text by program, amines drawn as free bases though some values may be those of a salt).
row,SMILES,melting point [°C]
1,Cn1c(-c2ccc(N3CCOCC3)cc2)cnc1[C@H](Cc1ccccn1)N(C=O)c1cc2cc(Br)ccc2o1,173 to 174
2,CCCCCC(C(=O)c1ccccc1)C(=O)c1ccccc1,68.5 to 69.5
3,CCOC(=O)c1cn(C)c2nc(Cl)ncc2c1=O,205
4,CN1C(=O)[C@@H](NC(=O)c2ccc(C(F)(F)F)cc2)N=C(c2ccccc2)c2ccccc21,125 to 127
5,Cc1ccc(OCC2=NCCN2)c(C)c1NS(C)(=O)=O,216 to 217
6,N#CCCN(N)c1nc2ccccc2s1,111 to 113
7,Cc1cc2c(-c3ccccc3Cl)c(NC(=O)Nc3ccc(Cl)cc3)c(=O)n(C)c2cc1C,207 to 209
8,Cc1[nH]c(=O)n(C(C)C)c1-c1ccc(C2CCCCC2)cc1,274
9,NS(=O)(=O)c1ccc(-c2noc(-c3cnn4ccc(-c5ccc(C(F)(F)F)cc5)nc34)n2)s1,251
10,COC(=O)c1cc(C(=O)c2cccc(F)c2)ccc1OC,140
11,O=C1NC(Cc2c[nH]c3ccccc23)C(CCc2cc(C(F)(F)F)cc(C(F)(F)F)c2)N1CCN1CCOCC1 (stereo not drawn),207
12,O=C(NCc1ccc(Cl)cc1)c1cnc2sc(CO)cc2c1O,205 to 210
13,O=C(Nc1ccc(N2CCN(Cc3ccccc3)CC2)c(Cl)c1)c1ccccn1,92 to 94
14,N#Cc1ccc(NC(=O)c2cc(-c3ccc(F)cc3F)ccc2O)cc1,189 to 190
15,COc1ccc(N(C(=O)CN2C(=O)C(COCc3ccccc3)C(=O)N(c3ccccc3)c3ccccc32)C(C)C)cc1 (stereo not drawn),203 to 204
16,O=C(Nc1ccccc1S(=O)(=O)c1ccccc1)N[C@@H](Cc1ccc(Oc2nccc3cnccc23)cc1)C(=O)O,136
17,CCCC(C)C(=O)Nc1cccc(O)c1 (stereo not drawn),136 to 137
18,C1CCC(Nc2nc(NC3CCCCC3)nc(NC3CCCCC3)n2)CC1,225
19,Cc1ccc(-c2nc(Cc3cccc(CO)c3)c(C)o2)cc1,97 to 99
20,O=S(=O)(Nc1cccc(CCOCc2ccc(-c3ccc(Cl)cc3)cc2F)c1)C(F)(F)F,99 to 101
21,CSC(Cc1cnn(-c2c(Cl)cc(C(F)(F)F)cc2Cl)n1)SC,97 to 98
22,CC(C)(C)OC(=O)c1cc(-c2cccc(F)c2)c(=O)n2c1-c1sccc1CC2,135 to 137
23,CC(C)[C@H](NC(=O)N(C)Cc1cscn1)C(=O)N[C@@H](Cc1ccccc1)C[C@H](O)[C@H](Cc1ccccc1)NC(=O)OCc1cccnc1,69 to 73
24,CCOC(=O)c1c(Cl)[nH]c(=O)c(I)c1Oc1cc(C)cc(C)c1,180 to 182
25,O=C(Nc1cnccn1)N1CCN(c2nc(-c3ccccc3)cs2)CC1,134 to 135

row,SMILES,melting point [°C]
1,Cc1cccc(NC(=O)NC2N=C(c3ccccc3F)c3ccccc3N(Cc3cc4ccccc4o3)C2=O)c1 (racemic),213 to 214
2,CC(=O)Nc1ccc(F)cc1-c1ccc(Cl)c(Cl)c1,138 to 140
3,CCCCOC(=O)C=CCOc1ccc(F)c(C(N)=O)c1F,< 40
4,COCCC1(C(=O)N[C@@H](Cc2ccc(NC(=O)c3c(Cl)cccc3Cl)cc2)C(=O)O)CCCC1,136 to 140
5,O=C(c1cc2c(Br)cccc2o1)c1cc2c(Br)cccc2o1,223 to 225
6,O=C(Nc1cnc(-c2ccccc2)nc1Cl)OCc1ccccc1,120 to 121
7,CCCCn1ccc(-c2ccc(C(=O)N3Cc4cccn4Cc4ccccc43)cc2)n1,122 to 123
8,COc1cc(OC)c(-c2cc3ccccc3n2C)cc1C=CC(=O)c1ccc(S(=O)(=O)NCc2cccnc2)cc1,202 to 203
9,c1cnc2c(c1)Cc1ncccc1-2,85
10,O=C1c2ccccc2C(=O)N1CCCCc1ccc(S(=O)(=O)Cl)cc1,122 to 125
11,CN1C(=O)c2ccccc2C[C@H]1C(=O)O,173 to 175
12,Cc1nnc2nc(-c3ccccc3)c3cc([N+](=O)[O-])ccc3n12,350 to 352
13,CC(C)(C)OC(=O)CN(O)CC(=O)OC(C)(C)C,73 to 76
14,O=c1[nH]c2occc2c2ccccc12,216 to 218
15,O=C(c1ccccc1)c1c(-c2ccccc2)sc2cc(O)ccc12,221 to 222
16,Oc1ccc2c(c1)CCC(NCC(O)COc1cccc3ccccc13)C2 (stereo not drawn),118 to 120
17,Nc1cc(-n2cc(C(=O)O)c(=O)c3c(O)c(F)c(F)cc32)c(F)cc1F,> 270
18,CCc1cccc(-c2cn(C)cc(-c3ccccc3)c2=O)c1,135 to 137
19,CC(C)(C)OC(=O)Nc1ccc(OC2CN(CC(c3ccccc3)c3ccccc3)C2)cc1,149 to 151
20,O=C1CCCCc2ccc([N+](=O)[O-])cc21,88 to 89
21,O=C(O)/C=C/c1ccc(OCCOC2CC2)cc1Oc1ncc(C(F)(F)F)cc1Cl,147 to 150
22,COC(=O)Nc1cccc(OC(=O)N(CCC#N)c2ccccc2)c1,98 to 99
23,O=Cc1c[nH]c2c1ccc1c3ccc(Br)cc3[nH]c12,> 250
24,CCN(CC)CCOc1ccc(Nc2ncc3c(n2)N(CC)C(=O)N(c2c(Cl)cccc2Cl)C3)cc1,85
25,O=C(c1ccc(Nc2ccnc3cc(C(F)(F)F)ccc23)cc1)N1CCC(Sc2ccc(F)cc2)CC1,211 to 214

row,SMILES,melting point [°C]
1,CC(=O)Oc1cc(OCC(O)c2ccc3c(c2)C(C)(C)CCC3(C)C)ccc1C(=O)O (stereo not drawn),119 to 120
2,CCS(=O)CC(=O)Nc1c(C)cccc1C (stereo not drawn),114 to 115
3,CC(C)(C)c1cc(C(=O)N2CC(O)C2)cc(C(C)(C)C)c1O,185 to 189
4,CC1(c2ccccc2)OC(C(=O)O)Oc2ccc(Cl)cc21 (stereo not drawn),144
5,CNC(=O)CC1N=C(C2CCCCC2)c2c(sc(C)c2C)-n2c(C)nnc21 (stereo not drawn),228 to 231
6,O=C(O)Cc1c(C(=O)O)c2cc(Oc3ccc(C(F)(F)F)cn3)ccc2n1-c1ccc(OC(F)(F)F)cc1,203
7,COC(=O)c1ccc(CN(C(=O)OC(C)(C)C)c2ccc(C3CCCCC3)cc2)cc1,99.5 to 101
8,CCN(c1cccc(-c2ccnc3c([N+](=O)[O-])cnn23)c1)S(=O)(=O)c1ccc(OC)cc1,209 to 211
9,CN(C)c1ccc(C(O)C#Cc2ccncc2)cc1 (stereo not drawn),117
10,CCc1nn(C)c2[nH]c(=O)c3ccccc3c12,291 to 294
11,O=C(Nc1nccs1)C(CC1CCCC1)c1ccc(C(F)(F)F)c(F)c1 (stereo not drawn),194 to 195
12,COc1ccc(Nc2nnc(Cc3ccncc3)c3ccccc23)cc1Cl,195 to 197
13,COc1ccc2oc(=O)cc(Oc3c(Cl)cccc3Cl)c2c1,170 to 171
14,NS(=O)(=O)c1cccc(-c2cccc(-c3nc(-c4ccc(C(F)(F)F)cc4)cc(C(F)(F)F)n3)c2)c1,267
15,CCOC(=O)c1cn(CCCl)c2cc(Cl)c(F)cc2c1=O,222
16,CC(C)(C)C(=O)Nc1ccncc1-c1n[nH]c2ccccc12,232 to 233
17,Cn1c(CNCC(C)(C)C)cc2cc(NC(=O)c3ccc(C#CC4(O)CC4)cc3)ccc21,173
18,Cc1nc(O)c2[nH]nc(C(C)C)c2n1,> 250
19,COc1cc(C)cc(-c2nn(CC#N)cc2-c2cc(NC[C@H](C)O)nc(Cl)n2)c1,197
20,Cn1c(CC(=O)O)cc(Cl)c1C(=O)c1ccc(S(C)=O)cc1 (stereo not drawn),222 to 223
21,COc1ccc2c(c1)C(Cc1ccnc(F)c1)(Cc1ccnc(F)c1)c1cccnc1O2,196 to 197
22,CCCCn1c(O)nc2c(N)ncnc21,222 to 224
23,Oc1ccc(Br)cc1-c1nc2ccccc2s1,164 to 165
24,Cc1cc2c3c(c1N)c(=O)c(C(=O)O)cn3C(C)CC2 (stereo not drawn),264 to 266
25,O=C(COC1Cc2cccc(O)c2CC1OCC(=O)N1CCOCC1)N1CCOCC1 (stereo not drawn),68 to 77

row,SMILES,melting point [°C]
1,Cc1cc(Cl)ccc1C(=O)CN(C(=O)C(C)Cl)c1ccccc1 (stereo not drawn),128
2,Cc1ccc(S(=O)(=O)N2CCCC2CO)cc1 (stereo not drawn),90 to 91
3,NC(=O)Cc1ccc2c(c1)CCc1cccnc1S2,165 to 166
4,COc1ccc2cccc3c2c1C(=O)C3=O,218 to 220
5,COC(=O)/C=C/c1ccc(C=O)s1,61 to 62.5
6,COc1ccc(-c2nc(NC(C)=O)n3nc(-c4ccco4)nc3n2)cc1,243 to 246
7,CCOc1ccc(-c2nn(C(C)c3oc4ccccc4c(=O)c3-c3cccc(F)c3)c3ncnc(N)c23)cc1F (stereo not drawn),216 to 218
8,Cn1ccnc1S(=O)CC(=O)C12CC3CC(CC(C3)C1)C2 (stereo not drawn),86 to 89
9,Fc1ccc(C(=Cc2ccccc2Cl)CBr)cc1,68
10,O=C1Nc2ccc(-c3cccc(Cl)c3)cc2C2(CCCCC2)O1,165 to 168
11,O=C(Cc1cccc(O)c1)c1cccc(O)c1,151 to 154
12,CC(C)CC(NC(=O)Cc1ccc(NC(=O)Nc2ccccc2Cl)cc1)c1cc(CCC(=O)O)on1 (stereo not drawn),143 to 145
13,CC(C)(CNc1ccc(C(=O)CCCC(=O)O)cc1)[N+](=O)[O-],160 to 161
14,O=C(O)c1c(F)c(OC(F)F)c(F)c(F)c1[N+](=O)[O-],77 to 80
15,CC(=O)N1Cc2c(-c3nc(C4CC4)no3)ncn2-c2ccccc21,202
16,Cc1cc(-n2c(C)ccc2-c2ccc(S(C)(=O)=O)cc2)ccc1-c1ccoc1,69 to 75
17,C=CC1=C(C(=O)OCC)C(C(F)(F)F)Oc2ccc(Cl)cc21 (stereo not drawn),51.9 to 53.2
18,COc1ccc2oc(=O)c(S(=O)(=O)Nc3ccc(F)c(N)c3)cc2c1,255 to 260
19,CCN1CNC(=N[N+](=O)[O-])N(Cc2ccc(Cl)nc2)C1,124 to 125
20,CNC(=O)c1ccc(C=CC(=O)NCC(=O)N(C)c2ccc(C)c(COc3cccc4c3nc(S)n4C)c2C)cc1,278 to 292
21,COc1ccc(C(C#Cc2ccccc2)CC(=O)O)cc1OC1CCCC1 (racemic),86 to 88
22,CCOC(=O)C(C)Oc1ccc(Oc2nnc3cc(Br)ccc3n2)cc1 (stereo not drawn),104
23,Clc1cc(Cl)c(C(Cl)Cl)nc1Cl,61 to 62
